Experimental data published in patent US8614064B2, “Methods of diagnosing atherosclerosis by measuring ApoCI” (The Johns Hopkins University, priority 2003, dated 2013).

Assays:
cytochrome c [1] = test: Immunofluorescence of cytochrome c in human cultured aortic smooth muscle cells; format: cell-based; settings: 24 h
Experimental: (§1) FIGS. 5A-5C depict the effect of ApoCI, ApoCIII, ApoCI-enriched HDL, and GW4869 on cytochrome c release in ASMC. After treatment of confluent cells for 24 hours with ApoCI (2.5 μg/mL medium), ApoCIII (2.5 μg/mL medium), or ApoCI-enriched HDL (1 μg apoA-I/mL medium), the cells were lysed. The cell lysate was used as the source of cytochrome c, and the pellet was used as a source of caspase-3. The cell lysates were separated by SDS-polyacrylamide gel electrophoresis, blotted onto nitrocellulose, and cytochrome c detected using a polyclonal antibody against cytochrome c (FIG. 5A, top panel). The gels were then subjected to densitometric scanning (FIG. 5B, middle panel). In a separate experiment (FIG. 5C, right), confluent cells were grown on cover slips and pretreated with serum-free medium for 30 minutes. The cells were then incubated with control medium, ApoCI (2.5 μg/mL medium), TNF-α (20 ng/mL), or ApoCI (2.5 μg/mL)+GW4869 (20 μmol/L) for 24 hours. The cells were then washed, treated with a primary anti-cytochrome c antibody, washed with phosphate-buffered saline, and treated with a fluorescein isothiocyanate-conjugated anti-rabbit IgG (FIG. 5C, lower panel).
AOSMC (5×10^3) were grown on cover slips to confluence and pretreated with serum free medium for 30 min as described above. […]

ceramide [2] = test: Measurement of the ceramide level (diacylglycerol kinase assay) in ASMC; format: cell-based, human
Experimental: (§2) FIGS. 4A-4D depict the effect of ApoCI, ApoCI-enriched HDL, and ApoCI-poor HDL on the level of ceramide in ASMC. Confluent ASMC were incubated with ApoCI (2.5 μg/mL) with time (FIG. 4A, upper left) or with ApoCI-enriched HDL (1 μg apoA-I/mL medium) or ApoCI-poor HDL (5 μg apoA-I/mL medium) (FIG. 4B, upper right) for 30 minutes. FIG. 4C: The cells were incubated with ApoCI alone ([…]) for 5 minutes or preincubated with GW4869 (20 μmol/L) for 30 minutes. After addition of ApoCI (2.5 μg/mL), incubation was continued for 6 hours, 12 hours, and 24 hours. After incubation, cells were harvested and the levels of ceramide determined using the diacylglycerol kinase assay. The level of phosphate was measured and the data (mean±SD) were expressed as percentage of the total ceramide present in untreated cells (vehicle DMSO). *P<0.05. In a separate experiment (FIG. 4D, right), confluent cells were grown on cover slips and pretreated with serum-free medium for 30 minutes. The cells were then incubated with vehicle DMSO alone (control), ApoCI (2.5 μg/ML), or ApoCI (2.5 μg/mL) plus the N-SMase inhibitor GW4869 (20 μmol/L) for 24 hours. The cells were then washed, treated with a primary anticeramide antibody, washed with phosphate-buffered saline, and treated with a fluorescein isothiocyanate-conjugated anti-mouse IgG (FIG. 4C, lower panel).
Cells were pelleted and extracted with chloroform-methanol-acetic acid 100:100:2 (v/v/v). Lipids in organic phase were dried in N2 atmosphere and re-extracted, and the organic phase was dried. Detergent solution (30 μl of 7.5%/n-octyl-β-glucopyranoside with 5 mM cardiolipin in 1 mM diethylenimine-pentaacetic acid) was added, and the samples were sonicated. Total inorganic phosphate level was measured employing the method of Bartlett et al. Bartlett, G R. (1959). J. Biol. Chem. 234, 449-458). Ceramide was measured using the sn-1, 2-diacylglycerolkinase-assay reagent system and labeling for 30 min with 1 mCi of [^32P] ATP in 10 μl of 5 mM ATP (Signorelli, P., and Hannun, Y. A. (2002) Meth. Enzymol. 345, 275-294). Diacylglycerol kinase was from Streptomyces species (Calbiochem, San Diego, Calif.). [^32P] ATP (specific activity 3000 Ci/mmol) was from New England Nuclear Company (Boston, Mass.). Ceramide-1-phosphate and diacylglycerol-1-phosphate were resolved by thin-layer chromatography on silica gel plates (Whatman, Clinton, N.J.), using a solvent composed of chloroform-acetone-methanol-acetic acid-water 10:4:3:2:1(v/v) and detected by autoradiography using an Instant Imager (Packard Canberra Company). Ceramide was expressed as pmol ceramide/nmol phosphate.

ceramide [3] = test: Anti-ceramide antibody immunofluorescence microscopy in ASMC; format: cell-based, human; settings: 24 h
Experimental: as §2

cytochrome c [4] = test: Cytochrome c release, Western immunoblot with densitometric scanning, ASMC; format: cell-based, human; settings: 24 h; ApoCI and ApoCIII 2.5 μg/mL, ApoCI-enriched HDL 1 μg apoA-I/mL
Experimental: as §1, with “lower panel). […]” for “lower panel).”

Compound: O=C(/C=C/c1ccc(/C=C/C(=O)Nc2ccc(C3=NCCN3)cc2)cc1)Nc1ccc(C2=NCCN2)cc1 [GW4869]
- effect of GW4869 on ApoCI-induced cytochrome c release (immunofluorescence) (cytochrome c [1]; ApoCI 2.5 μg/mL + GW4869 20 μmol/L): inhibited
- effect of GW4869 on ApoCI-induced ceramide production, 24 hours (ceramide [2]; GW4869 20 μmol/L, 24 hours): reversed it to a high level
- effect of GW4869 on cellular level of ceramide induced by ApoCI, 5 minutes and 6 hours (ceramide [2]; GW4869 20 μmol/L, after 5 minutes and 6 hours of incubation): significantly decreased
- effect of GW4869 on ApoCI-induced ceramide production, 12 hours (ceramide [2]; GW4869 20 μmol/L, after 12 hours of incubation): completely inhibited
- effect of GW4869 on ApoCI-induced ceramide immunofluorescence (ceramide [3]; ApoCI 2.5 μg/mL plus GW4869 20 μmol/L): eliminated

Compound: ApoCIII: purified human ApoCIII purchased from Academy Bio-Medical Company, used as negative control
- stimulation of the release of cytochrome c (cytochrome c [4]): 2.3 fold

Compound: Apolipoprotein C-I (TPDVSSALDKLKEFGNTLEDKARELISRIKQSELSAKMREWFSETFQKVKEKLKIDS; UniProt P02654 27-83, looked up) [ApoCI, 6.6-kDa single-chain plasma protein of 57 amino acids; purified human ApoCI purchased from Academy Bio-Medical Company]
- stimulation of the release of cytochrome c (cytochrome c [4]): 4.1 fold
- release of cytochrome c from mitochondria into the cytoplasm (immunofluorescence) (cytochrome c [1]; ApoCI 2.5 μg/mL): marked increase
- maximum increase in ceramide level by ApoCI (ceramide [2]; ApoCI 2.5 μg/mL, by 5 minutes): 1.7 fold
- anti-ceramide immunofluorescence of treated cells (ceramide [3]; ApoCI 2.5 μg/mL, compared with control cells): reacted strongly
